The values below come from patent US11839212B2, “Synergistic pesticidal compositions and methods for delivery of insecticidal active ingredients” (0903608 B.C. Ltd., priority 2018, dated 2023).

Read-outs that look alike come from different tables or passages of the source.

Usually MIC stands for the least concentration at which growth counts as inhibited.

Assay in all cases: Synergistic Growth Inhibition Assay (MIC and FIC index, 96-well, resazurin)
Holding throughout (type): cell-based

The subject of experiment [1] is Alternaria solani. The note with it: for MIC: Alternaria solani. Here is the method:
(§1) In some embodiments, the synergistic action between the pesticidal active ingredient, and the at least one C6-C10 (or alternatively C11 or C12) saturated or unsaturated aliphatic acid components of the pesticidal compositions according to embodiments of the present disclosure was tested using a Synergistic Growth Inhibition Assay, which is derived from and related to a checkerboard assay as is known in the art for testing of combinations of antimicrobial agents. In the Synergistic Growth Inhibition Assay used in accordance with some embodiments of the present disclosure, multiple dilutions of combinations of pesticidal active ingredient and at least one C6-C10 saturated or unsaturated aliphatic acid agents are tested in individual cells for inhibitory activity against a target pest or pathogenic organism. In one such embodiment, the combinations of pesticidal active ingredient and C6-C10 (or alternatively C11 or C12) saturated or unsaturated aliphatic acid agents may preferably be tested in decreasing concentrations. In a further such embodiment, the combinations of pesticidal active ingredient and C6-C10 (or alternatively C11 or C12) saturated or unsaturated aliphatic acid agents may be tested in increasing concentrations. These multiple combinations of the pesticidal active ingredient and at least one C6-C10 (or alternatively C11 or C12) saturated or unsaturated aliphatic acid agents may be prepared in 96-well microtiter plates. In one such embodiment, the Synergistic Growth Inhibition Assay then comprises rows which each contain progressively decreasing concentrations of the pesticidal active ingredient and one or more C6-C10 (or alternatively C11 or C12) saturated or unsaturated aliphatic acid agents to test for the MIC of the agents in combination at which growth of the target pest or pathogen is inhibited. Thus, each well of the microtiter plate is a unique combination of the two agents, at which inhibitory efficacy of the combination against the target pest or pathogen can be determined.
(§2) In one embodiment according to the present disclosure, for each row of microtiter cells in the Synergistic Growth Inhibition Assay, the FIC index is calculated from the lowest concentration of the pesticidal active ingredient and one or more C6-C10 saturated or unsaturated aliphatic acid agents necessary to inhibit growth of a target pest or pathogen. The FIC of each component is derived by dividing the concentration of the agent present in that well of the microtiter plate by the minimal inhibitory concentration (MIC) needed of that agent alone to inhibit growth of the target pest or pathogen. The FIC index is then the sum of these values for both agents in that well of the microtiter plate. […] Fractional inhibitory concentration indices may then used as measure of synergy. […] When the FIC index is equal to 1, the combination is additive.
(§3) Then, serial dilutions of these initial compositions in successive wells in the row of the microtiter plate were used to assay the pesticidal composition under the same conditions to determine the concentration of the composition combining the two agents corresponding to the microtiter well in which growth inhibition of the target pest or organism ceases.
A culture of the representative fungal pathogen, namely Fusarium oxysporum, Botrytis cinerea, or Sclerotinia sclerotiorum, for example, is grown to exponential phase in potato dextrose broth (PDB).

Experiment [2] relates to Fusarium oxysporum. The conditions noted are these: Fusarium oxysporum, 48 h. On the procedure:
as §1, §2, §3
Resazurin dye (also known as Alamar blue dye) was used as an indicator to determine the presence of growth or inhibition of growth of Fusarium oxysporum in the wells of the 96 well microtiter plates used in the exemplary Synergistic Growth Inhibition Assay. In addition to the color change of the resazurin dye in the presence of growth of the Fusarium oxysporum, an optical or visual examination of the microtiter well may also be made to additionally determine the presence of growth or inhibition of growth of the Fusarium oxysporum.

Experiment [3] has as its system Botrytis cinerea. The conditions noted are these: for MIC: Botrytis cinerea, 48 h. Here is the method:
as §1, §2, §3
Similarly to as described above, Resazurin was used as an indicator of growth or inhibition of growth of Botrytis cinerea in the exemplary Synergistic Growth Inhibition Assay. In addition to the color change of the resazurin, an optical or visual examination of the microtiter well may also be made to additionally determine the presence of growth or inhibition of growth of the Botrytis cinerea.

Experiment [4] has as its system Sclerotinia sclerotiorum. The note with it: Sclerotinia sclerotiorum, […]. Here is the method: as §1, §2, §3
Similarly to as described above, Resazurin was used as an indicator of growth or inhibition of growth of Sclerotinia sclerotiorum in the exemplary Synergistic Growth Inhibition Assay. In addition to the color change of the resazurin, an optical or visual examination of the microtiter well may also be made to additionally determine the presence of growth or inhibition of growth of the Sclerotinia sclerotiorum.

Where [5] appears, read: Compound B alone, 7 days incubation, read-out: MIC (B).
Setting [6] is: Table 51, Compound B alone, 48 hours incubation, read-out: MIC (B).
Setting [7] is: Table 59, Compound B alone, 48 hours incubation, read-out: MIC (B).
Where [8] appears, read: Compound A alone, 7 days incubation, read-out: MIC (A).
[9] abbreviates: read-out: MIC (B), Table 51, Compound B alone, 48 hours incubation.
The mark [10] stands for this setting: read-out: MIC (B), Table 59, Compound B alone, 48 hours incubation.
Where [11] appears, read: Table 56, Compound B alone, 48 hours incubation, read-out: MIC (B).
Setting [12] is: Table 23, Compound A alone, incubation 48 hours, read-out: MIC (A).
Where [13] appears, read: Table 20B, Compound A alone, incubation 7 days, read-out: MIC (A).

Take `C=CCCCCCC(=O)O` [7-Octenoic acid]: the MIC in experiment [1] (setting [5]) stood at 156 µg/mL; in experiment [2] (Table 27, Compound B alone, 48 hours incubation, read-out: MIC (B)), 312 µg/mL; in experiment [2] (Table 30, Compound B alone, 48 hours incubation, read-out: MIC (B)), 312 µg/mL; in experiment [2] (Table 32, Compound B alone, 48 hours incubation, read-out: MIC (B)), 156 µg/mL.
In the case of `CCCCCCC(O)C(=O)O` (stereo not drawn) [2-Hydroxyoctanoic acid], the MIC in experiment [1] (setting [5]), in experiment [3] (setting [6]) and in experiment [4] (setting [5]) was 625 µg/mL throughout.
As for `CCCCCCC(=O)O` [Heptanoic acid, heptanoic acid], the MIC is 156 µg/mL in experiment [1] (setting [5]); 156 µg/mL in experiment [1] (Table 60, Compound B alone, 7 days incubation, read-out: MIC (B)); 156 µg/mL in experiment [3] (Table 24, Compound B alone, 48 hours incubation, read-out: MIC (B)); 39.1 µg/mL in experiment [4] (Table 16, Compound B alone, incubation 7 days, read-out: MIC (B)); 39.1 µg/mL in experiment [4] (Table 17, Compound B alone, incubation 7 days, read-out: MIC (B)); 39.1 µg/mL in experiment [4] (Table 19, Compound B alone, incubation 7 days, read-out: MIC (B)).
Turning to `CCC(C)CCC(=O)O` (stereo not drawn) [4-Methylhexanoic acid], the MIC in experiment [1] (setting [5]) is 312 µg/mL; in experiment [3] (setting [6]) it was 78.1 µg/mL; in experiment [3] (setting [7]) it was 78.1 µg/mL.
In the case of `CC(C)CC(C)c1sccc1NC(=O)c1cn(C)nc1C(F)(F)F` (stereo not drawn) [Penthiopyrad, reference compound], the MIC turned out to be 500 µg/mL in experiment [1] (setting [8]); 250 µg/mL in experiment [3] (Table 56, Compound A alone, 48 hours incubation, read-out: MIC (A)); 500 µg/mL in experiment [4] (setting [8]).
Take `CCCCC(CC)C(=O)O` (stereo not drawn) [2-Ethylhexanoic acid]: the MIC in experiment [1] (setting [5]), in experiment [3] (setting [6]), in experiment [3] (setting [7]) and in experiment [4] (setting [5]) was 156 µg/mL throughout.
On to `O=C(O)CCCCCCCCCO` [10-Hydroxydecanoic acid], for which the MIC in experiment [1] (read-out: MIC (B)) was found to be 1000 µg/mL; in experiment [3] (setting [9]), 250 µg/mL; in experiment [3] (setting [10]) it was 250 µg/mL; in experiment [4] (read-out: MIC (B), Compound B alone, 7 days incubation), 500 µg/mL.
`CCCCCCC(C)CC(=O)O` (stereo not drawn) [3-Methylnonanoic acid]: in experiment [1] (setting [5]), the MIC amounted to 62.5 µg/mL.
As for `CCC(O)C(=O)O` (stereo not drawn) [2-Hydroxybutyric acid], the MIC in experiment [1] (setting [5]) is 2500 µg/mL; in experiment [3] (setting [6]), 5000 µg/mL; in experiment [3] (setting [11]), 2500 µg/mL; in experiment [3] (Table 57, Compound B alone, 48 hours incubation, read-out: MIC (B)), 2500 µg/mL; in experiment [3] (setting [7]), 2500 µg/mL; in experiment [4] (setting [5]), 5000 µg/mL. Also, in experiment [1] (Compound B alone, 7 days incubation), the “MIC (B)” value was determined as 2500 µg/mL.
In the case of `CC/C=C\CC(=O)O` [Cis-3-hexenoic acid], the MIC in experiment [1] (setting [5]) was found to be 312 µg/mL; in experiment [4] (Table 34, Compound B alone, 7 days incubation, read-out: MIC (B)) it was 156 µg/mL.
In the case of `CCCCCC(O)CC(=O)O` (stereo not drawn) [3-Hydroxyoctanoic acid], the MIC worked out at 1250 µg/mL in experiment [1] (setting [5]), 625 µg/mL in experiment [3] (setting [6]), 625 µg/mL in experiment [3] (setting [11]) and 625 µg/mL in experiment [3] (setting [7]).
In the case of `CCCC(C)CC(=O)O` (stereo not drawn) [3-Methylhexanoic acid], the MIC in experiment [1] (setting [5]) was 250 µg/mL; in experiment [3] (setting [6]), 125 µg/mL; in experiment [3] (setting [7]) it was 125 µg/mL.
Regarding `O=C(O)CCCCCCCCCCCO` [12-Hydroxydodecanoic acid], the MIC in experiment [1] (read-out: MIC (B)) amounted to 100 µg/mL; in experiment [3] (setting [9]) it was 100 µg/mL; in experiment [3] (read-out: MIC (B), Table 55, Compound B alone, 48 hours incubation) it was 100 µg/mL; in experiment [3] (read-out: MIC (B), Table 56, Compound B alone, 48 hours incubation) it was 100 µg/mL; in experiment [3] (setting [10]), 50 µg/mL.
Turning to `CC(C)CC(=O)O` [3-Methylbutyric acid], the MIC was 312 µg/mL in experiment [1] (setting [5]), 312 µg/mL in experiment [3] (setting [6]), 312 µg/mL in experiment [3] (setting [7]) and 625 µg/mL in experiment [4] (setting [5]).
With `CCCCC(O)C(=O)O` (stereo not drawn) [2-Hydroxyhexanoic acid], the MIC in experiment [1] (setting [5]) was found to be 2500 µg/mL; in experiment [3] (setting [6]), 1250 µg/mL.
On to `CO/C=C(/C(=O)OC)c1ccccc1COc1cccc(C(F)(F)F)n1` [Picoxystrobin, reference compound], for which the “MIC (A)” value in experiment [1] (Compound A alone, 7 days incubation) stood at 500 µg/mL; in experiment [1] (Table 60, Compound A alone, 7 days incubation) it was 500 µg/mL; in experiment [3] (Table 51, Compound A alone, 48 hours incubation), 250 µg/mL; in experiment [3] (Table 52, Compound A alone, 48 hours incubation), 250 µg/mL.
In the case of `CC(C)(C)C(O)(CCc1ccc(Cl)cc1)Cn1cncn1` (stereo not drawn) [Tebuconazole, reference compound], the MIC came out at 255 µg/mL in experiment [2] (Table 15A, Compound A alone, incubation 48 hours, read-out: MIC (A)); 225 µg/mL in experiment [2] (Table 15B, Compound A alone, incubation 48 hours, read-out: MIC (A)); 225 µg/mL in experiment [2] (Table 32, Compound A alone, 48 hours incubation, read-out: MIC (A)); 112 µg/mL in experiment [3] (setting [12]); 112 µg/mL in experiment [3] (Table 25, Compound A alone, 48 hours incubation, read-out: MIC (A)); 112 µg/mL in experiment [3] (Table 50, Compound A alone, 48 hours incubation, read-out: MIC (A)). In addition, the MIC in experiment [4] (Table 19, Compound A alone, incubation 7 days, read-out: MIC (A)) amounted to 225 µg/mL; in experiment [4] (setting [13]), 56.2 µg/mL; in experiment [4] (Table 41, Compound A alone, 7 days incubation, read-out: MIC (A)) it was 112 µg/mL; in experiment [4] (Table 42, Compound A alone, incubation 7 days, read-out: MIC (A)), 112 µg/mL.
On to `Cc1cc(C2CC2)nc(Nc2ccccc2)n1` [Cyprodinil, reference compound], for which the MIC in experiment [2] (Table 13, Compound A alone, incubation 48 hours, read-out: MIC (A)) turned out to be […]; in experiment [2] (Table 29, Compound A alone, 48 hours incubation, read-out: MIC (A)), […]; in experiment [3] (setting [12]) it was 4.5 µg/mL; in experiment [3] (Table 26, Compound A alone, 48 hours incubation, read-out: MIC (A)) it was 4.5 µg/mL; in experiment [3] (Table 47, Compound A alone, 48 hours incubation, read-out: MIC (A)), 4.5 µg/mL; in experiment [4] (setting [13]), […].
With `OC(Cc1ccccc1Cl)(Cn1nc[nH]c1=S)C1(Cl)CC1` (stereo not drawn) [Prothioconazole, reference compound], the MIC in experiment [1] (setting [8]) is 500 µg/mL; in experiment [3] (Table 57, Compound A alone, 48 hours incubation, read-out: MIC (A)), 31.2 µg/mL; in experiment [4] (setting [8]), 62.5 µg/mL.
